Assay results published in a melting point compilation (Tetko et al.; mined from patent text by program, amines drawn as free bases though some values may be those of a salt).

| melting point [°C] | SMILES |
| --- | --- |
| 109 to 110 | COC(=O)C(C#N)c1ncc(Cl)cc1Cl (configuration not stated) |
| 156 to 157 | CCC(CC)N(O)C(=O)Nc1ccc(C(=O)c2ccccc2)cc1 |
| 80 to 81 | NNC(=O)CCc1cccc(C(F)(F)F)c1 |
| 122 | N#CC=Cc1ccc(C=O)cc1 |
| 283 | COc1ccc(C2Cc3ccccc3-c3nc(N)c4ccccc4c32)c(OC)c1OC (configuration not stated) |
| 74 to 75 | COC(=O)NNC(=S)Cc1cccs1 |
| 180 to 181 | CCCc1nc2c(N)nc(C)c(C)c2n1CC1(O)CCC1 |
| 136 to 138 | O=C(c1cccc(OCc2ccccc2)c1)C(CCc1nnn[nH]1)c1ccccc1 (configuration not stated) |
| 159 to 162 | CCc1cc(C(=O)c2ccccc2Cl)c(-n2c(CNC(=O)c3cc4ccccc4n3CC(=O)O)nnc2C2CCCCC2)s1 |
| 212 to 213 | O=c1c2c(nc3ccc(Cl)cn13)C(=Cc1ccccc1)CC2 |
| 113 | COCc1cc(OCc2ccccc2)c2nc(C)n(C)c2c1 |
| 325 to 327 | O=C(O)c1cn(C2CC2)c2nc(O)c(F)cc2c1=O |
| 105 to 107 | c1ccc(C(CC2=NCCN2)c2ccncc2)cc1 (configuration not stated) |
| 240 to 242 | CC1(C)OC(=O)Nc2ccc(-c3cccc(C#C[Si](C)(C)C)c3)cc21 |
| 82 | CNc1c([N+](=O)[O-])ccc(Cl)c1Cl |
| 167 to 168 | CCCC(=O)c1cnc2ccccc2c1Nc1ccccc1OC |
| 85 to 88 | Cc1nc2ccccc2nc1S(=O)Cc1ccccn1 (configuration not stated) |
| 131 | N#CNC(=Nc1ccncc1)NCCCCOc1ccccc1 |
| 201 to 206 | O=C1c2ccccc2C(=O)N1OCc1c(Cl)cccc1Cl |
| 102 to 106 | COC(=O)[C@]1(C)CCc2c(C)c(OCc3ccccc3)c(C)c(C)c2O1 |
| 89 to 90 | CC(=O)c1cc(-c2cccc(Cl)c2)ccc1N |
| 111 | Cc1c(C)c2c(c(C)c1O)CC[C@@](C)(CCCl)O2 |
| 113 to 116 | COc1cc(N)c(Cl)cc1C(=O)NCC1CCN(CCCCCC(=O)c2ccc3ccccc3c2)CC1 |

| melting point [°C] | SMILES |
| --- | --- |
| 149 to 152 | Cc1cc(=O)oc2nn(Cc3ccc(Cl)cc3)c(C)c12 |
| 286 | N#Cc1c(N2CCN(C(=O)c3cccs3)CC2)c2sccc2n(Cc2ccc(F)cc2)c1=O |
| 113 to 115 | CCCc1c(OCCCCCc2c(Cl)c(Cl)cc(OC)c2OC)ccc(C(=O)OC)c1O |
| 86 to 90.5 | O=[N+]([O-])CC(SC(=S)N1CCCCC1)c1ccccc1 (configuration not stated) |
| 101 | COC[C@@H]1CN(c2ccc(OCc3ccccc3)cc2)C(=O)O1 |
| 61 to 63 | O=S(=O)(F)C=CNc1ccc(Cl)cc1 |
| 116 to 118 | Cc1cccc(Cl)c1-n1nc(C(C)C)c(C#N)c1N |
| 98 to 100 | Cc1cc(Oc2c(Cl)cc(C(F)(F)F)cc2Cl)nn1C(=O)NOCc1ccccc1 |
| 69 to 71 | CCOC(=O)CON(CC)C(=S)Nc1ccc(Cl)cc1C |
| 126 to 128 | O=C(COc1ccc(CCNCC(O)COc2ccccc2)cc1)NO (configuration not stated) |
| 134 to 135 | Cc1ccc(Cn2nc(-c3cc(C(C)(C)C)c(O)c(C(C)(C)C)c3)c3cccnc32)cc1 |
| 197 to 198 | CC1CCC2(OC1)OC1CC3C4CCC5CC(O[Si](C)(C)C)CCC5(C)C4CCC3(C)C1C2C (configuration not stated) |
| 218 to 220 | COc1cccc(CNC(=O)c2nc3cccc(OCc4ccc(C#N)cc4)c3c(=O)[nH]2)c1 |
| 271 to 273 | Cc1ccc(CC2CCN(CCOc3ccc4c(c3)=NC(=S)N=4)CC2)cc1 |
| 117 to 120 | CCCc1c(OCc2ccc(C(=O)NC(C)CCCc3cccnc3)cc2)ccc(C(C)=O)c1O (configuration not stated) |
| 105 | Nc1ccc(I)cc1C=O |
| 51 to 52 | Cc1ccccc1CNCCNCc1ccccc1C |
| 54 to 56 | CCN(CC)C(=O)n1ccc(S(=O)c2ccccc2Cl)n1 (configuration not stated) |
| 129 to 131 | CCOC(=O)CSc1ncnc2c(O)n(C(C)(C)C)nc12 |
| 112 to 114 | O=C1CCOc2ccc(OCc3ccc4ccccc4n3)cc21 |
| 142 to 143 | O=C(CNC(=O)c1ccc(F)cc1)c1ccoc1 |
| 103 to 106 | COc1ccc([C@@H]2Sc3cc(Cl)ccc3N(CCCCl)C(=O)[C@@H]2O)cc1 (relative stereo) |
| 80 | CC(C)(C)c1cc(Cl)c(Cl)cc1[N+](=O)[O-] |

| melting point [°C] | SMILES |
| --- | --- |
| 48.6 to 50.2 | CCCCOC(=O)CCCCCCCCCCCOCC(O)CNCCO (configuration not stated) |
| 96 to 97 | Cc1nc(C(F)(F)F)ccc1C(=O)c1c(S(C)=O)noc1C1CC1 (configuration not stated) |
| 213 to 214 | COc1cc(OC)c2c(=O)[nH]c(-c3cc(C)c(OCCN4CCN(C(C)=O)CC4)c(C)c3)nc2c1 |
| 115 to 120 | O=C(O)c1ccc(=O)n(-c2ccccc2)c1 |
| 97 | Clc1ccc(C2(Cn3cncn3)CC(Cl)CO2)c(Cl)c1 (configuration not stated) |
| 145 to 150 | O=C(O)c1cn(C2CC2)c2c(F)c(N3CC(CNC(=O)C(F)(F)F)C3)c(F)cc2c1=O |
| 248 to 250 | Cc1cc(Cl)c2c(c1)C=C(/C=C/C=C/C=C/C(=O)O)CO2 |
| 92 to 93 | CN(C(=O)OC(C)(C)C)c1cc(Oc2ccc(C(F)(F)F)cc2)ccc1[N+](=O)[O-] |
| 212 to 217 | O=C1C2CC=C(SC3=CCC4C(=O)N(c5ccccc5)C(=O)C4C3)CC2C(=O)N1c1ccccc1 (configuration not stated) |
| 159 to 160 | COCOc1ccccc1-c1cc(-c2cccc(C(=O)OC)c2)c(C#N)c(NC(=O)c2cccs2)n1 |
| 90.5 to 92.5 | CCOC(=O)c1cccnc1N |
| 158 to 160 | CC(C)(C)C(NC(=O)c1ccc(Cl)cc1)NC(=NC#N)Nc1cccc(Cl)c1 (configuration not stated) |
| 105 to 108 | CCCCC12CCC3=C(CCc4cc(OC)ccc43)C1CCC2=O (configuration not stated) |
| 97.9 to 99.3 | COc1ccc(NCCNC(=O)c2ccc(OCC=C(C)CCC=C(C)C)cc2)cn1 |
| 122 to 124 | O=C(O)c1ccc(CCOc2c(F)ccc3nc(C(=O)NCc4cccc(OCCOc5nc[nH]n5)c4)[nH]c(=O)c23)cc1 |
| 92 to 94 | COC(=O)C(C)N(C(=O)CCl)c1c(C)cccc1C (configuration not stated) |
| 92 to 93.9 | O=CN(O)CCCC(O)CS(=O)(=O)c1ccccc1Oc1ccc(OC(F)(F)F)cc1 (configuration not stated) |
| 124 to 125 | Cc1nc2c(O)cccn2c(=O)c1Cc1ccccc1 |
| 80 to 81 | CCN(CC)CC(O)CNC(=O)c1c(OCc2ccccc2)c2ccccc2n1-c1ccccc1 (configuration not stated) |
| 120 to 121 | OC1=Cc2ccccc2C=Cc2ccccc21 |
| 93 to 95 | CCCCC(CC)COc1ccc(-c2nc(-c3ccc(OCC(CC)CCCC)cc3)nc(-c3ccc(OCC(CC)CCCC)cc3O)n2)cc1 (configuration not stated) |

| SMILES | melting point [°C] |
| --- | --- |
| Cc1cc2c3c(ccc2[nH]1)OCC(CN1CC=C(c2c[nH]c4ccccc24)CC1)O3 (configuration not stated) | 212 to 215 |
| FC(F)(F)c1ccc2c(C3=CCN(CCCOc4cccc5[nH]ccc45)CC3)c[nH]c2c1 | 190 to 195 |
| CCCN(CCC)Cc1nc(-c2ncn3c2[C@@H]2CCN2C(=O)c2c(Cl)cccc2-3)no1 | 147 to 153 |
| C[N+]1([O-])C(=O)C(F)N=C(c2ccccc2)c2cc(Cl)ccc21 (configuration not stated) | 167 to 169 |
| CCCCCCCCCCc1cc2c(s1)NC(=O)CN=C2c1ccccc1C | 100 to 102 |
